The source of these data is patent publication US20230242654A1, “REAGENTS FOR EXPANDING CELLS EXPRESSING RECOMBINANT RECEPTORS” (Juno Therapeutics, Inc., priority 2017, published 2023).

For data set [1], the system named is Healthy donor-or patient-derived CART cells. As to the kind of experiment: Cytokine production on BCMA or BCMA/PD-L1 conjugated beads. Type of data set: cell-based, human. To be noted: 1 μM, in the presence of PD-L1; versus vehicle. As to the method: In another study, cells were cultured in the presence of BCMA beads generated as described in Example 1, with or without additional conjugation of human recombinant PD-L1-Fc. Healthy donor-or patient-derived CART cells were stimulated in the presence of BCMA-conjugated beads or BCMA/PD-L1 conjugated beads for 24 hours in the presence of 1 μM lenalidomide. Cytokine production was measured in the supernatant. […] The results were consistent with a conclusion that anti-BCMA CAR-T cytokine production following incubation with BCMA-conjugated beads was increased by lenalidomide in the presence of PD-L1-mediated inhibition.

A further data set concerns anti-BCMA CAR T cells. As to the kind of experiment: Cytokine production after 24 hours BCMA bead stimulation with or without lenalidomide. The class given is cell-based, human. As to the method:
In another study, recombinant human BCMA-conjugated beads were used to stimulate CAR T cells at various concentrations to titrate the magnitude of stimulation, either low ([…]), medium ([…]), and high (200 μg/mL) stimulation. […] Cells were stimulated with BCMA conjugated beads for 24 hours in the presence of 0.1 μM or 1.0 μM lenalidomide, or vehicle control. A protein transport inhibitor was added in the final hours of incubation, and cells were stained for intracellular IL-2, IFN-γ, and TNF-α.

The next data set concerns RPMI-8226 target cells. The data set can be described thus: Cytolytic activity and IFN-gamma against target cells after bead incubation. Type of data set: cell-based. The protocol: Cytolytic activity of CAR+ T cells after incubation with BCMA-conjugated beads was assessed by incubation with the BCMA-expressing target cell line RPMI-8226, which is a BCMA+ multiple myeloma cell line. After seven days of incubation of anti-BCMA CAR+ T cells with BCMA-conjugated beads (5 μg/ml or 50 μg/ml) in the presence or absence of lenalidomide, the beads were removed from the cultures and the cells were plated with the RPMI-8226 target cells at a ratio of effector cells to target cells of 3:1 or 1:1 in the further presence or absence of 5 μM lenalidomide. To perform the cytolytic assay, the target RPMI-8226 cells were labeled with NucLight Red (NLR) to permit tracking of target cells by microscopy. Cytolytic activity was assessed by measuring the loss of viable target cells over a period of four days, as determined by red fluorescent signal (using the INCUCYTE® Live Cell Analysis System, Essen Bioscience). The number of viable cells was normalized to cells at day 0 prior to incubation with the RPMI-8226 target cells.
In a further exemplary study, anti-BCMA CAR+ T cells were untreated, or were incubated for 24 hours or for seven days with beads (diameter about 4.5 μm) from a 50 μg/mL BCMA-conjugated bead composition generated as described in Example 1 at a ratio of beads to cells of 1:1. The anti-BCMA CAR T+ cells were removed from the cultures and incubated with RPMI-8226 target cells at a 0.3:1 or 1:1 effector cell to target cell ratio. To assess cytokine response to the target cells after incubation with BCMA-conjugated beads, IFN gamma levels were measured in the supernatant.

The test system of a further data set is Anti-BCMA CAR-T cells. As to the kind of experiment: Phenotype of anti-BCMA CAR T cells stimulated 7 days on BCMA beads with or without lenalidomide. The class given is cell-based, human. The protocol: Anti-BCMA CAR-T cells, generated from samples from representative healthy donors or multiple myeloma patient derived material, and cultured with 50 μg/mL BCMA-Fc conjugated beads (generated as described in Example 1) at a ratio of 1:1 bead:CAR+ T cell for 7 days, in the presence of […] lenalidomide or a vehicle control. Expression of CD25, PD-1, Tim3 and Lag3 on CAR T cells (using an antibody for surrogate CAR marker) cultured under the different conditions then was assessed by flow cytometry.

A further data set deals with RPMI-8226. The data set can be described thus: Serial restimulation with BCMA-conjugated beads, then cytolytic activity. Type of data set: cell-based. The protocol: Anti-BCMA CAR T cell compositions were generated from three different donors, each containing T cells expressing the same anti-BCMA CAR, thawed, and were incubated for seven days with beads (diameter about 4.5 μm) from a 50 μg/mL BCMA-conjugated bead composition generated as described in Example 1 at a 1:1 ratio of beads to cells. The incubation was carried out in the presence of 5 μM lenalidomide or in the absence of lenalidomide (vehicle control). Cells were harvested after 7 days and replated for three further rounds up to 28 days, each round involving resetting to initial seeding density and incubating for an additional 7 days in the presence of the same concentration of lenalidomide.
At each reset after the pretreatment, cytolytic activity was assessed by incubation with the BCMA-expressing target cell line RPMI-8226 (labeled with NucLight Red (NLR)) at an effector to target cell (E:T) ratio of 1:1 in the further presence of or absence of lenalidomide. Cytolytic activity was assessed by measuring the loss of viable target cells over a period of up to 80-150 hours, as determined by red fluorescent signal (using the IncuCyte® Live Cell Analysis System, Essen Bioscience). Cells from each condition were plated in triplicate. The % cell killing compared to vehicle only control (set at 100%) was determined.

[2] abbreviates: medium stimulation (50 μg BCMA beads), 24 hours, 1 μM.

Each structure is given as a SMILES string.

For the compound `Nc1cccc2c1CN(C1CCC(=O)NC1=O)C2=O` (stereo not shown) [lenalidomide], the secreted cytokine levels entry in data set [1] is given as “potentiated secreted cytokine levels”. For the same compound, the “percentage of IFN-γ+ and TNF-α+ intracellular staining” value in the data set on anti-BCMA CAR T cells (0.1 μM or 1.0 μM, all stimulation levels, CD4+ and CD8+) is on record as “increased the percentage”. Besides, the “percentage of IL-2+ CAR+ T cells” value with anti-BCMA CAR T cells (5-μg stimulation) was “increasing the percentage”. For the same compound, the “percentage of IL-2+ CAR+ T cells” value in the data set with anti-BCMA CAR T cells (50-μg and 200-μg stimulation) is given as “decreasing the percentage”. For the same compound, the “CAR T cytokine production” value with anti-BCMA CAR T cells (absence of stimulation) is given as “had no effect on CAR T cytokine production”. In addition, in the data set with anti-BCMA CAR T cells (setting [2]), the “increase in IL-2 concentration compared with vehicle control” value came out at 200% and the “increase in TNF-α concentration compared with vehicle control” value is 200%. For the same compound, the “IFN-γ concentration compared with vehicle control” value in the data set on anti-BCMA CAR T cells (medium stimulation, 24 hours) was “donor-dependent increases”. Also, the target cell viability result in the data set on RPMI-8226 target cells (RPMI 8226 cells cultured in the presence of lenalidomide, no T cells) is listed as “did not directly influence target cell viability”. The “cytolytic activity of the CAR+ T cells” value in the data set on RPMI-8226 target cells (lenalidomide during the seven day bead incubation prior to the killing assay) is reported as “increased cytolytic activity of the CAR+ T cells”. In addition, in the data set with RPMI-8226 target cells (lenalidomide present during the cell killing assay), the killing activity result is on record as “did not substantially affect killing activity”. Besides, the “CAR+ viability” value in the data set with Anti-BCMA CAR-T cells (1 μM, 7 days on 50 μg/mL BCMA beads, 3 healthy donors) is recorded as “significantly increased CAR+ viability”. For the same compound, in the data set with Anti-BCMA CAR-T cells (1 μM, 7 days on BCMA beads), the “surface CD25 expression (MFI)” value is given as “increasing CD25 expression”, the “surface PD-1 expression (MFI)” value is “reduced PD-1 expression” and the total cell count result is listed as “did not alter the total cell count”. Further, in the data set on Anti-BCMA CAR-T cells (CD4+ and CD8+ CAR+ populations), the “percentage positive for Lag3 expression” value is listed as “increased”. Also, the “percentage of PD-1+ cells” value in the data set on Anti-BCMA CAR-T cells (CD4+ population) is recorded as “decrease in the percentage of PD-1+ cells”. Also, the “surface expression of Tim3” value in the data set on Anti-BCMA CAR-T cells (CD8+ population) is “increased the surface expression of Tim3”. In addition, the “percentage CAR+” value in the data set with Anti-BCMA CAR-T cells (vehicle- versus lenalidomide-treated) was “no significant differences”. Moreover, in the data set on RPMI-8226 (further donor (FIG. 10B), all time points), the killing efficacy result is “increased killing efficacy”. Besides, the cytolytic activity result in the data set on RPMI-8226 (preincubated with 5 μM lenalidomide 7 or 14 days, exemplary donor) is reported as “exhibited greater cytolytic activity”. The killing efficacy result in the data set with RPMI-8226 (preincubated with lenalidomide 14 or 21 days compared to day 7) is reported as “overall decrease in killing efficacy”.
